Data reported in patent US20150307841A1, “Composition for Promoting Differentiation and Proliferation of Neural Stem Cell and Neural Precursor Cell” (priority 2014, published 2015).
Entries after “also recorded” stand apart in the source; their conditions may differ.

Key:
[1] = test system: GAD67-, VGluT1-, ChAT-positive neurons and OX42 reactive microglia in the hippocampus; experiment: Immunohistochemical analysis of GAD67, VGluT1, ChAT, OX42 in hippocampus (Experimental Example 1); assay type: in vivo, rat
Procedure: Immunostaining was carried out using antibodies against VGluT1 (diluted 1:500, Chemicon), ChAT (1:500, Chemicon), GFAP (1:1,000, Chemicon), tyrosine hydroxylase (TH, 1:500, Chemicon) and OX42 (CD11b/c, 1:250, Serotec) as primary antibodies instead of the anti-BrdU antibodies used in (4). The other process was the same as in (4), except that incubation was performed at 37° C. for 30 minutes in 2 N HCl.
In the immunohistochemical analysis, the number of the cells immnunostained against each antibody was counted from 5 or 6 hippocampal coronal sections. For each staining analysis, every fifth cryosections of the hippocampal region of brain tissues (AP: bregma −4.5 to −4.3 mm) were taken for immunostaining. The number of the immnunostained cells was represented as an average of number of cells in the hippocampal region of one brain slice.
The number of the VGluT1- and GAD-positive cells in the brain slice samples 1 week and 4 weeks after the administration of soyasaponin I was presented per microscopic field (×400-VGluT1, ×800-GAD67) and the number of the ChAT-positive cells was presented per each hippocampal region (10-12 confocal laser microscopic fields). 5-11 animals were used per group. Western blotted membranes were analyzed using the multi-gauge, bio-imaging program on LAS-4000 Mini (Fujifilm Life Science, Stamford, Conn., USA). Densitometeric analysis of the expression ratios of VGluT1/β-actin, GAD65/67/β-actin and ChAT/β-actin was normalized to the vehicle group.

[2] = test system: hippocampal neural precursor cells (NPCs); experiment: NeuN, GFAP, TUJ1, MAP2 immunostaining of cultured embryonic neural precursor cells (differentiation, neurite outgrowth); assay type: cell-based, rat
Excerpt: Pregnant Sprague-Dawley rats purchased from Orient Animal Breeding Center (a branch of Charles River Laboratories, Gyeonggi-do, Korea) were sacrificed by exposing to CO2 inhalation. Hippocampal neural precursor cells (NPCs) were isolated from the brain of the E16 rat embryo according to the method of Shin M H et al. (Exp Mol Med, 2002) with slight modifications.
Briefly, hippocampi were aseptically dissected from the embryonic forebrain, mechanically dissociated in Ca^2+/Mg^2+-free Hank's balanced salt solution (HBSS) and then plated at 7×10^5 cells/cm^2 on 60-mm dishes pre-coated with 15 μg/mL poly-L-ornithine and 1 μg/mL fibronectin. The neural precursor cells were cultured in serum-free N2 media supplemented with 10 ng/mL bFGF in 5% CO2 for 3 days and then detached using 0.05% trypsin-ethylenediaminetetraacetic acid (EDTA). The neural precursor cells were plated on 12-mm cover glasses (Bellco Co., Vineland, N.J., USA) and cultured one more day in N2 media supplemented with 10 ng/mL bFGF in 5% CO2 (primary culturing).
Following the primary culturing in (1), in order to confirm the differentiation of the neural precursor cells and the proliferation of the differentiated neurons, the neural precursor cells were cultured on 12-mm cover glasses (Bellco Co., Vineland, N.J., USA) for 4 days in bFGF-free N2 media with 2×10^4 cells/well. For double immunostaining of GFAP and NeuN, and TUJ1 and MAP2, the cells were cultured for only 2 days.
The immunostaining was carried out as previously described (Donaldson J G (2001) Immunofluorescence staining Curr Protoc Cell Biol Chapter 4: Unit 4.3) with minor modifications.
On the next day, after adding a vehicle (dimethyl sulfoxide) or soyasaponin I at different concentrations of 0.5, 1 or 2 μM to the media, the cells were fixed with 4% PFA in PBS at 4° C. for 4-15 minutes. The cells were permeabilized with 0.5% Triton X-100 for 5 minutes and blocked with 5% normal serum (a mixture of normal donkey, goat and horse sera) for 1 hour at room temperature.
The cells were incubated with anti-GFAP (1:1,000, Chemicon), anti-NeuN (1:500, Chemicon), anti-MAP2 (1:2,500, Sigma) and anti-TUJ1 (1:2,000, Sigma) primary antibodies for 1 hour at room temperature. The secondary antibodies and scanning method used were the same as in (2).
Cell counting was performed as reported by Park H J et al. (Phytother Res, 2008). The average length per neurite of the MAP2-positive cells with longer neurites more than double the cell body width was counted from 10-12 confocal laser microscopic fields that were randomly chosen per the cultured cover glass. Primary branches, which directly outgrow from the cell body, were counted when the length of the primary branches was 2 times or longer than the cell body width. All secondary and tertiary branches that come from the primary and secondary branches, respectively, were also counted. The numbers of the branches were also counted from 10-12 confocal laser microscopic fields that were randomly chosen per each cover glass on which the neuronal cells were grown and immunostained with MAP2 antibodies. Analysis of the neurite length and the numbers of the branches was performed with LSM Image Examiner ver. 2.80 (Carl Zeiss).

For `C[C@@H]1O[C@@H](O[C@H]2[C@H](O[C@H]3[C@H](O[C@H]4CC[C@@]5(C)[C@@H](CC[C@]6(C)[C@@H]5CC=C5[C@@H]7CC(C)(C)C[C@@H](O)[C@]7(C)CC[C@]56C)[C@@]4(C)CO)O[C@H](C(=O)O)[C@@H](O)[C@@H]3O)O[C@H](CO)[C@H](O)[C@@H]2O)[C@H](O)[C@H](O)[C@H]1O` [soyasaponin I], the “Number of VGluT1-positive cells” value ([1]; 10 mg/kg oral) was 57.33±2.43 cells per microscopic field, the “Number of VGluT1-positive cells compared to the IBO group” value ([1]; 5, 10, 20 mg/kg oral) was “increased up to the level of the normal group” and the “OX42 (reactive microglia) intensity normalized to the normal group” value ([1]; DG and CA1 regions, 5, 10, 20 mg/kg) was “decreased in a dose-dependent manner; also recorded: decreased again to the level of the normal model”. The “Neurite length (MAP2) increase compared to the normal group” value ([2]; 1 μM soyasaponin I for 4 days) was 2.2 fold, the “Number of NeuN-expressing cells (differentiation into mature neurons)” value ([2]; 0.5 and 1 μM, concentration-dependent) was “increased” and the “Astrocytes expressing glial fibrillary acidic protein (GFAP) in the cultures” value ([2]; hippocampal neural precursor cell cultures) was “hardly observed”. For the same compound, the “Increase in TUJ1-expressing cells compared to the normal group” value ([2]; soyasaponin I 0.5 μM group) was “about 4 fold”, the Average neurite length ([2]; soyasaponin I 1 μM group) was “markedly increased” and the “Numbers of both primary and secondary branches” value ([2]; soyasaponin I 1 μM group) was “markedly increased”.
